Series [1] is described as follows: Metabolic stability on liver S9 of rat. The following applies: rat liver S9, test compound 1 μM, 37° C.
The test system of series [2] is cells of rat spleen. Nature of the series: cells. The class given is cell-based, SD rat. The following applies: for minimal effective concentration: 24 h, read-out: Minimum effective concentration (interferon inducing activity).

Consider `CCCCOc1nc(N)c2nc(O)n(Cc3ccc(C(=O)OCc4ccccc4)cc3)c2n1` [Example 14, 2-Butoxy-8-hydroxy-9-(4-benzyloxycarbonylbenzyl)adenine], for which, in series [1], the Residual rate was found to be 22%.
`CCCCOc1nc(N)c2nc(O)n(Cc3ccc(CN4CCOCC4)cc3)c2n1` [Example 79, 2-Butoxy-8-hydroxy-9-(4-morpholinomethylbenzyl)adenine] had a Residual rate in series [1] of 17%. The minimal effective concentration in series [2] worked out at 0.0003 µM.
The matching figures for `COC(=O)CCc1nc(N)c2nc(O)n(Cc3ccc(CC(=O)OC)cc3)c2n1` [Example 67, 8-Hydroxy-2-(2-methoxycarbonylethyl)-9-(4-methoxycarbonylmethylbenzyl)adenine]: 0% and 0.001 µM.
Take `CCCCOc1nc(N)c2nc(O)n(Cc3ccc(CC(=O)OCCN(C)C)cc3)c2n1.Cl` [Example 72, 2-Butoxy-8-hydroxy-9-{4-(2-dimethylaminoethoxycarbonyl)methylbenzyl}adenine hydrochloride]: in series [1], the Residual rate worked out at 4%.
Regarding `CCCCOc1nc(N)c2nc(O)n(Cc3ccc(CC(N)=O)cc3)c2n1` [Example 76, 2-Butoxy-8-hydroxy-9-(4-carbamoylmethylbenzyl)adenine], in series [2], the minimal effective concentration was determined as 0.0001 µM.
For the compound `CCCCOc1nc(N)c2nc(O)n(Cc3ccc(C(C)C(=O)OC)cc3)c2n1` (centres unmarked) [Example 100, 2-Butoxy-8-hydroxy-9-[4-(1-methoxycarbonylethyl)benzyl]adenine], the Residual rate in series [1] is 1%. For the same compound, in series [2], the minimal effective concentration stood at 0.0003 µM.
Regarding `CCCCOc1nc(N)c2nc(O)n(Cc3ccc(C(N)=O)nc3)c2n1` [Example 83, 2-Butoxy-9-{(6-carbamoyl-3-pyridyl)methyl}-8-hydroxyadenine], the minimal effective concentration in series [2] is 0.0003 µM.
Same read-out and setting: the figure for `CCCCOc1nc(N)c2nc(O)n(Cc3ccc(CC(=O)N(C)C)cc3)c2n1` [Example 78, 2-Butoxy-8-hydroxy-9-(4-dimethylcarbamoylmethylbenzyl)adenine] is 3e-05 µM; for `CCCCOc1nc(N)c2nc(O)n(Cc3cccc(CCC(=O)O)c3)c2n1` [compound 20, reference compound] it is 0.03 µM; for `COC(=O)c1ccc(CSc2nc(N)c3nc(O)n(Cc4ccccc4)c3n2)cc1` [Example 104, 9-Benzyl-8-hydroxy-2-[(4-methoxycarbonylbenzyl)thio]adenine] it is 0.1 µM.
On the same count and under the same terms, the figure for `CCCCOc1nc(N)c2nc(O)n(Cc3ccc(N4CCC(C(=O)O)CC4)nc3)c2n1` [compound 21, reference compound] is 0.003 µM; for `Cc1ccc(Cn2c(O)nc3c(N)nc(CCC(=O)O)nc32)cn1` [compound 17, reference compound] it is 0.3 µM.
For `CCCCOc1nc(N)c2nc(O)n(Cc3ccc(CC(=O)NC)cc3)c2n1` [Example 77, 2-Butoxy-8-hydroxy-9-(4-methylcarbamoylmethylbenzyl)adenine], in series [2], the minimal effective concentration came to 0.0003 µM.
`CSC(=O)CCc1nc(N)c2nc(O)n(Cc3ccccc3)c2n1` [Example 63] yielded a Residual rate in series [1] of 0%. Also, the “Minimum effective concentration (interferon inducing activity)” value (“Minimum effective concentration” below) in series [2] was 100 nM.
Regarding `Nc1nc(SCc2ccc(C(=O)O)cc2)nc2c1nc(O)n2Cc1ccccc1` [compound 35, 9-Benzyl-8-hydroxy-2-[(4-carboxybenzyl)thio]adenine, reference compound], the minimal effective concentration in series [2] stood at 1 µM.
In series [1], `COC(=O)Cc1cccc(CSc2nc(N)c3nc(O)n(Cc4ccccc4)c3n2)c1` [Example 105, 9-Benzyl-8-hydroxy-2-[(3-methoxycarbonylmethylbenzyl)thio]adenine] displayed a Residual rate of 1%. Moreover, in series [2], the minimal effective concentration was 0.3 µM.
For the compound `Nc1nc(SCc2cccc(CC(=O)O)c2)nc2c1nc(O)n2Cc1ccccc1` [compound 36, 9-Benzyl-8-hydroxy-2-[(3-carboxymethylbenzyl)thio]adenine, reference compound], the minimal effective concentration in series [2] is 3 µM.
Regarding `COCCOc1nc(N)c2nc(O)n(Cc3cccc(CC(=O)O)c3)c2n1` [Comparative example 27, 9-(3-Carboxymethylbenzyl)-8-hydroxy-2-(2-methoxyethoxy)adenine, reference compound], the minimal effective concentration in series [2] was found to be 0.3 µM.
For the compound `COC(=O)CCc1nc(N)c2nc(O)n(Cc3ccc(C)nc3)c2n1` [Example 66, 8-Hydroxy-2-methoxycarbonylethyl-9-{(6-methyl-3-pyridyl)methyl}adenine], in series [1], the Residual rate was 0%. The “Minimum effective concentration” value in series [2] is on record as 1 nM.
For `CCCCOc1nc(N)c2nc(O)n(Cc3ccc(OCC(=O)OC)c(Br)c3)c2n1` [Example 23, 2-Butoxy-8-hydroxy-9-{3-bromo-4-(methoxycarbonylmethoxy)benzyl}adenine], in series [2], the minimal effective concentration was 0.1 µM.
On the same count and under the same terms, to `Nc1nc(SCc2ccc(CC(=O)O)cc2)nc2c1nc(O)n2Cc1ccccc1` [compound 37, 9-Benzyl-8-hydroxy-2-[(4-carboxymethylbenzyl)thio]adenine, reference compound] belongs 1 µM; to `Nc1nc(CC(=O)N2CCOCC2)nc2c1nc(O)n2Cc1ccccc1` [Example 110, 9-Benzyl-8-hydroxy-2-(morpholinocarbonylmethyl)adenine], 0.1 µM; to `Nc1nc(SCc2cccc(C(=O)O)c2)nc2c1nc(O)n2Cc1ccccc1` [compound 34, 9-Benzyl-8-hydroxy-2-[(3-carboxybenzyl)thio]adenine, reference compound], 0.3 µM.
Same read-out and setting: to `Nc1nc(CCC(=O)O)nc2c1nc(O)n2Cc1ccccc1` [Comparative example 15, 9-Benzyl-2-(2-carboxyethyl)-8-hydroxyadenine, reference compound] belongs 1 µM.
Turning to `Nc1nc(CC(=O)OCCF)nc2c1nc(O)n2Cc1ccccc1` [Example 109, 9-Benzyl-2-(2-fluoroethoxycarbonyl)methyl-8-hydroxyadenine], the Residual rate in series [1] stood at 0%. For the same compound, in series [2], the minimal effective concentration turned out to be 0.03 µM.
On to `CCOC(=O)CCCCSc1nc(N)c2nc(O)n(Cc3ccccc3)c2n1` [Example 57, 9-Benzyl-2-(4-ethoxycarbonylbutyl)thio-8-hydroxyadenine], for which, in series [1], the Residual rate was determined as 3%.
For `CCCCOc1nc(N)c2nc(O)n(Cc3ccc(CC(=O)OC)o3)c2n1` [Example 81, 2-Butoxy-8-hydroxy-9-(5-methoxycarbonylmethylfurfuryl)adenine], in series [1], the Residual rate is on record as 2%. Also, the minimal effective concentration in series [2] turned out to be 0.001 µM.
The matching figures for `COC(=O)Cc1ccc(CSc2nc(N)c3nc(O)n(Cc4ccccc4)c3n2)cc1` [Example 106, 9-Benzyl-8-hydroxy-2-[(4-methoxycarbonylmethylbenzyl)thio]adenine]: 3% and 0.1 µM.
Turning to `CCCCOc1nc(N)c2nc(O)n(Cc3ccc(CC(=O)O)o3)c2n1` [compound 19, 2-Butoxy-9-(5-carboxylmethylfurfuryl)-8-hydroxyadenine, reference compound], the minimal effective concentration in series [2] came to 0.03 µM.
In turn, `COCCOc1nc(N)c2[nH]c(=O)n(Cc3cccc(CC(=O)OC)c3)c2n1` [Example 96, 8-Hydroxy-9-(3-methoxycarbonylmethylbenzyl)-2-(2-methoxyethoxy)adenine] displayed a Residual rate in series [1] of 0%. Besides, the minimal effective concentration in series [2] was 0.003 µM.
With `CCCCOc1nc(N)c2nc(O)n(Cc3ccc(C(=O)O)c(C(=O)O)c3)c2n1` [compound 23, 2-Butoxy-9-(3,4-dicarboxylbenzyl)-8-hydroxyadenine, reference compound], the minimal effective concentration in series [2] worked out at 0.1 µM.
As to `CC(C)OC(=O)Cc1nc(N)c2nc(O)n(Cc3ccccc3)c2n1` [Example 108, 9-Benzyl-8-hydroxy-2-(isopropoxycarbonylmethyl)adenine], the Residual rate in series [1] is 3%. The minimal effective concentration in series [2] is 0.03 µM.
With `Nc1nc(CCC(=O)O)nc2c1nc(O)n2Cc1ccc(CC(=O)O)cc1` [compound 18, 2-(2-Carboxylethyl)-9-(4-carboxylmethylbenzyl)-8-hydroxyadenine, reference compound], the minimal effective concentration in series [2] stood at 3 µM.
On the same count and under the same terms, to `CCCCOc1nc(N)c2nc(O)n(Cc3ccc(N4CCC(C(=O)OC)CC4)nc3)c2n1` [Example 87, 2-Butoxy-8-hydroxy-9-{6-(4-methoxycarbonyl-1-piperidyl)-3-pyridylmethyl}adenine] belongs 0.001 µM.
In series [1], `CCCCOc1nc(N)c2[nH]c(=O)n(Cc3cccc(CCC(=O)OC)c3)c2n1` [Example 84, 2-Butoxy-8-hydroxy-9-(3-methoxycarbonylethylbenzyl)adenine] returned a Residual rate of 1%. In addition, in series [2], the minimal effective concentration came to 0.01 µM.
For `Nc1nc(OCC(=O)O)nc2c1nc(O)n2Cc1ccccc1` [compound 16, 9-Benzyl-8-hydroxy-2-calboxylmethoxyadenine, reference compound], the minimal effective concentration in series [2] came out at 1 µM.
With `CCCCOc1nc(N)c2nc(O)n(Cc3ccc(SC4CCOC4=O)nc3)c2n1` (centres unmarked) [Example 93], the “Minimum effective concentration” value in series [2] was 3 nM.
On to `Nc1nc(SCC(=O)N2CCOCC2)nc2c1nc(O)n2Cc1ccccc1` [Example 52, 9-Benzyl-8-hydroxy-2-(morphorinocarbonylmethyl)thioadenine], for which the Residual rate in series [1] is reported as 24%.
With `CCCCOc1nc(N)c2nc(O)n(Cc3ccc(C(C)C(=O)O)cc3)c2n1` (centres unmarked) [compound 31, 2-Butoxy-8-hydroxy-9-[4-(1-carboxyethyl)benzyl]adenine, reference compound], the minimal effective concentration in series [2] came out at 0.03 µM.
As to `CCCCOc1nc(N)c2nc(O)n(Cc3ccc(CCC(=O)OCC)cc3)c2n1` [Example 86, 2-Butoxy-9-(4-ethoxycarbonylethylbenzyl)-8-hydroxyadenine], the Residual rate in series [1] is listed as 18%.
The same measure, in the same setting: the figure for `CCCCOc1nc(N)c2nc(O)n(Cc3ccc(OC4CCOC4=O)cc3)c2n1` (centres unmarked) [Example 94, 2-Butoxy-9-{4-(γ-butyrolactonyloxy)benzyl}-8-hydroxyadenine] is 2%.

The values are drawn from patent publication US8148371B2, “Adenine compound and use thereof” (Dainippon Sumitomo Pharma Co., Ltd., priority 2002, dated 2012).
